Source: patent US12435087B2, “Modulators of DCN-1 and methods of use thereof” (Cellarity, Inc., priority 2023, dated 2025)
Where two headings read alike, the source gives them in different places.

Target: DCN1 (DCUND1) protein PONY domain (Homo sapiens (Human), UniProt Q96GG9)
Test: TR-FRET assay (binding to DCN-1, displacement of FAM-labeled probe)
In short: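 Compounds read at 1, 5 and 24 h, 0.1% final DMSO, by TR-FRET between terbium-streptavidin on biotinylated DCN1 PONY domain (E. coli) and a FAM-tagged non-covalent inhibitor probe. Two setups used, 5 nM protein with 20 nM labelled probe, or 0.31 nM protein with 100 nM labelled plus 800 nM unlabelled probe; buffer had TritonX and 200 mM NaCl. % activity relative to high (with probe) and low (without probe) controls.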

[1] = 24 hr after treatment with compound, read-out: TR FRET IC50 24 hr
[2] = TR FRET IC50 1 hr (nM), 1 hr after treatment with compound
[3] = read-out: TR FRET IC50 1 hr, 1 hr after treatment with compound

DCN1 (DCUND1) protein PONY domain, sequence (Q96GG9 60-248): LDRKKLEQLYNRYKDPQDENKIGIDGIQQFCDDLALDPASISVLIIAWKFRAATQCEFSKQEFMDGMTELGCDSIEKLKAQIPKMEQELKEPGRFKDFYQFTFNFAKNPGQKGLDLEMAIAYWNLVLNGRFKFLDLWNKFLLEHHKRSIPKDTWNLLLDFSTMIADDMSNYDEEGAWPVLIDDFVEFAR

Compound | IC50 [1] [nM] | IC50 [2] [nM] | IC50 [3] [nM]
C=C(CN1CCN(C2COC2)CC1)C(=O)NCc1cccc([C@@H]2c3c(C)nn(-c4ccccc4)c3N(CC)C(=O)[C@H]2NC(=O)c2cccc(C(F)(F)F)c2)c1 (stereo in doubt) [Compound I-252] | ≤ 200 | 1000 to 3000 | –
C=C(CN1CC2CC1CO2)C(=O)NCc1cccc([C@@H]2c3cnn(-c4ccccc4)c3N(CC)C(=O)[C@H]2NC(=O)c2cccc(C(F)(F)F)c2)c1 (stereo partly shown) [Compound I-7] | ≤ 200 | – | ≤ 200
C=C(CN1C2COCC1C2)C(=O)NCc1cccc([C@@H]2c3cnn(-c4ccccc4)c3N(CC)C(=O)[C@H]2NC(=O)c2cccc(C(F)(F)F)c2)c1 [Compound I-8] | ≤ 200 | – | ≤ 200
C=C(CN1CCC(C)(O)C1)C(=O)NCc1cccc([C@@H]2c3cnn(-c4ccccc4)c3N(CC)C(=O)[C@H]2NC(=O)c2cccc(C(F)(F)F)c2)c1 (stereo partly drawn) [Compound I-10, N-((4R,5S)-7-ethyl-4-(3-((2-((3-hydroxy-3-methylpyrrolidin-1-yl)methyl)acrylamido)methyl)phenyl)-6-oxo-1-phenyl-4,5,6,7-tetrahydro-1H-pyrazolo[3,4-b]pyridin-5-yl)-3-(trifluoromethyl)benzamide] | ≤ 200 | – | ≤ 200
C=C(CN1CC2(CCOC2)C1)C(=O)NCc1cccc([C@@H]2c3cnn(-c4ccccc4)c3N(CC)C(=O)[C@H]2NC(=O)c2cccc(C(F)(F)F)c2)c1 [Compound I-12] | ≤ 200 | – | ≤ 200
C=C(CN1CC2CC1C2)C(=O)NCc1cccc([C@@H]2c3cnn(-c4ccccc4)c3N(CC)C(=O)[C@H]2NC(=O)c2cccc(C(F)(F)F)c2)c1 [Compound I-13] | ≤ 200 | – | ≤ 200
CCN1C(=O)[C@@H](NC(=O)c2cccc(C(F)(F)F)c2)[C@H](c2ccc(F)c(NC(=O)/C=C/CN(C)C)c2)c2cnn(-c3ccccc3)c21 [Compound I-32] | ≤ 200 | 1000 to 3000 | –
CCN1C(=O)[C@@H](NC(=O)c2cccc(C(F)(F)F)c2)[C@H](c2cccc(CNC(=O)C3=CCCN(C)C3)c2)c2cnn(-c3ccccc3)c21 [Compound I-33] | 1000 to 3000 | 1000 to 3000 | –
CCN1C(=O)[C@@H](NC(=O)c2nccc(C(F)(F)F)n2)[C@H](c2cccc(NC(=O)C3=CCN(C)C3)c2)c2c(C)nn(-c3ccccc3)c21 [Compound I-37] | ≤ 200 | – | ≤ 200
C=C(CN1CCOCC1)C(=O)NCc1cccc([C@H]2c3cnn(-c4ccccc4)c3N(CC)C(=O)[C@@H]2NC(=O)c2nccc(C(F)(F)F)n2)c1 [Compound I-43] | 1000 to 3000 | 1000 to 3000 | –
C=C(CC(=O)OC)C(=O)NCc1cccc([C@@H]2c3cnn(-c4ccccc4)c3N(CC)C(=O)[C@H]2NC(=O)c2cccc(C(F)(F)F)c2)c1 [Compound I-50] | ≤ 200 | 1000 to 3000 | –
CCN1C(=O)[C@@H](NC(=O)c2cccc(C(F)(F)F)c2)[C@H](c2ccccc2NC(=O)CCl)c2c(C)nn(-c3ccccc3)c21 [Compound I-52, N-((4R,5S)-4-(2-(2-chloroacetamido)phenyl)-7-ethyl-3-methyl-6-oxo-1-phenyl-4,5,6,7-tetrahydro-1H-pyrazolo[3,4-b]pyridin-5-yl)-3-(trifluoromethyl)benzamide] | ≤ 200 | 1000 to 3000 | –
CCN1C(=O)[C@@H](NC(=O)c2cccc(C(F)(F)F)c2)[C@H](c2cccc(CNC(=O)C3=CCN(C)C3)c2)c2cnn(-c3ccccc3)c21 [Compound I-54] | ≤ 200 | 1000 to 3000 | –
C=C(CC(=O)NCc1cccc([C@@H]2c3cnn(-c4ccccc4)c3N(CC)C(=O)[C@H]2NC(=O)c2cccc(C(F)(F)F)c2)c1)C(=O)OC [Compound I-57] | 1000 to 3000 | 1000 to 3000 | –
C=C(CN1CCC1)C(=O)NCc1cccc([C@H]2c3cnn(-c4ccccc4)c3N(CC)C(=O)[C@@H]2NC(=O)c2cccc(C(F)(F)F)c2)c1 [Compound I-59] | ≤ 200 | 1000 to 3000 | –
C=C(CN(C)CC1COC1)C(=O)NCc1cccc([C@@H]2c3cnn(-c4ccccc4)c3N(CC)C(=O)[C@H]2NC(=O)c2cccc(C(F)(F)F)c2)c1 [Compound I-61] | ≤ 200 | – | ≤ 200
C=C(CN1CC2(CCO2)C1)C(=O)NCc1cccc([C@@H]2c3cnn(-c4ccccc4)c3N(CC)C(=O)[C@H]2NC(=O)c2cccc(C(F)(F)F)c2)c1 [Compound I-63] | ≤ 200 | – | ≤ 200
CCN1C(=O)[C@@H](NC(=O)c2cccc(C(F)(F)F)c2)[C@H](c2cccc(NC(=O)C3=CCC3)c2)c2c(C)nn(-c3ccccc3)c21 [Compound I-70, N-((4R,5S)-4-(3-(cyclobut-1-ene-1-carboxamido)phenyl)-7-ethyl-3-methyl-6-oxo-1-phenyl-4,5,6,7-tetrahydro-1H-pyrazolo[3,4-b]pyridin-5-yl)-3-(trifluoromethyl)benzamide] | 200 to 1000 | 1000 to 3000 | –
CCN1C(=O)[C@@H](NC(=O)c2cccc(C(F)(F)F)c2)[C@H](c2cccc(CNC(=O)/C=C(\C)C(=O)OC)c2)c2cnn(-c3ccccc3)c21 [Compound I-73] | 1000 to 3000 | 1000 to 3000 | –
C=C(CO)C(=O)NCc1cccc([C@@H]2c3cnn(-c4ccccc4)c3N(CC)C(=O)[C@H]2NC(=O)c2cccc(C(F)(F)F)c2)c1 [Compound I-76] | 1000 to 3000 | 1000 to 3000 | –
C=C(CO)C(=O)NCc1cccc([C@H]2c3cnn(-c4ccccc4)c3N(CC)C(=O)[C@@H]2NC(=O)c2cccc(C(F)(F)F)c2)c1 [Compound I-87] | 1000 to 3000 | 1000 to 3000 | –
CCN1C(=O)[C@H](NC(=O)c2cccc(C(F)(F)F)c2)[C@@H](c2cccc(N(C)C(=O)C3=CCC3)c2)c2cnn(-c3ccccc3)c21 [Compound I-91] | 1000 to 3000 | 1000 to 3000 | –
C=C(CN1CCOCC1)C(=O)NCc1cccc([C@H]2c3cnn(-c4ccccc4)c3N(CC)C(=O)[C@@H]2NC(=O)c2cccc(C(F)(F)F)c2)c1 [Compound I-93] | 1000 to 3000 | 1000 to 3000 | –
CCN1C(=O)[C@H](NC(=O)c2cccc(C(F)(F)F)c2)[C@@H](c2cccc(NC(=O)C3=CCC3)c2)c2c(C)nn(-c3ccccc3)c21 [Compound I-94, N-((4S,5R)-4-(3-(cyclobut-1-ene-1-carboxamido)phenyl)-7-ethyl-3-methyl-6-oxo-1-phenyl-4,5,6,7-tetrahydro-1H-pyrazolo[3,4-b]pyridin-5-yl)-3-(trifluoromethyl)benzamide] | 1000 to 3000 | – | 1000 to 3000
CCN1C(=O)[C@@H](NC(=O)c2cccc(C(F)(F)F)c2)[C@H](c2cccc(CNC(=O)/C(C)=C/C(=O)OC)c2)c2cnn(-c3ccccc3)c21 [Compound I-95] | 1000 to 3000 | 1000 to 3000 | –
C=C(CN1CC(F)(F)C1)C(=O)NCc1cccc([C@H]2c3cnn(-c4ccccc4)c3N(CC)C(=O)[C@@H]2NC(=O)c2cccc(C(F)(F)F)c2)c1 [Compound I-96] | 1000 to 3000 | 1000 to 3000 | –
C=C(CN1CCC(F)(F)C1)C(=O)NCc1cccc([C@H]2c3cnn(-c4ccccc4)c3N(CC)C(=O)[C@@H]2NC(=O)c2cccc(C(F)(F)F)c2)c1 [Compound I-102] | 1000 to 3000 | 1000 to 3000 | –
CCN1C(=O)[C@H](NC(=O)c2cccc(C(F)(F)F)c2)[C@@H](c2cccc(CNC(=O)C3=CCCN(C)C3)c2)c2cnn(-c3ccccc3)c21 [Compound I-106] | 1000 to 3000 | 1000 to 3000 | –
CCN1C(=O)[C@@H](NC(=O)c2cccc(C(F)(F)F)c2)[C@H](c2cccc(CNC(=O)C3=C(C(=O)OC)CCC3)c2)c2cnn(-c3ccccc3)c21 [Compound I-108] | 1000 to 3000 | 1000 to 3000 | –
